Legend:
[1] = tested on: HeLa cells; test: Cell migration/invasion scratch assay, HeLa; type: cell-based; settings: 100 μM, 24 h
Protocol: Cell migration in the HEK293 and the HeLa cell lines was investigated. The assay was conducted to investigate cell maintenance after being damaged. […] Cells were grown in a 24-well plate until 80% confluence and treated with 2f and 2j for 24 or 48 h compared to the untreated control. The cells in each well were then scratched to create a wound area across the center of the plates using a plastic 20 μL pipette tip. Cell images were taken immediately, and the scratch area was measured at 0, 24, and 48 h. During the experiment, the percentage of wound area was tracked as an indirect assessment. Compared to the control, the percentage of empty area change at each time point was quantified with a Nikon eclipse Ts2R inverted microscope.
Pictures were taken at the start of the experiment (0 h) and 24 h later. […] Scale bars represent 500 μm.

[2] = DPPH radical scavenging assay; type: biochemical; design: DPPH517nm % SA ± SD: dose or concentration left out as unconfirmed; settings: for DPPH517nm % SA ± SD: mean of three measurements; for EC50: read-out: DPPH517nm EC50 ± SD
Source text: (§1) Three in vitro antioxidant assays (DPPH, FRAP, and ABTS) were utilized to evaluate the antioxidant property of the synthesized compounds. The DPPH (α, α-diphenyl-β-picrylhydrazyl) assay is the well-known approach to determine antioxidant activity using a stable free radical DPPH, measure the absorbance change, and calculate the absorbance change in the percentage of scavenging activity. […] For example, the ferric-tripyridyltriazine (Fe^3+-TPTZ, colorless) complex is reduced to ferrous tripyridyltriazine (Fe^2+-TPTZ) at low pH and introduces a blue color with maximum absorption at 593 nm. The change in absorbance is related to antioxidant activity. However, a significant limitation of these in vitro tests is the non-physiological measurement conditions (no enzymatic condition and no transition metal ion chelating activity); therefore, the results obtained may not reflect the antioxidant activity of the source material under the biological conditions that exist in humans and animals. The ABTS assay involves a more drastic radical that is chemically produced. The use of ABTS for antioxidant activity determination of hydrophilic and lipophilic pure compounds has attracted interest due to its solubility in organic and aqueous media and stability in a wide pH range [31].
The DPPH method was followed and modified from a previous study. Trolox was used as a reference. The DPPH stock solution at a concentration of 0.625 mM was prepared in 50% ethanol and kept at 4 °C in the dark. On the day of the experiment, 0.208 mM fresh DPPH working solution was freshly prepared by further diluting with 50% ethanol. […] Each reaction was carried out in a 96-well plate, and 100 μL of test preparation and DPPH solution were added. The 96-well plate was then shaken well for 10 min and kept in the dark at room temperature for 20 min, and the absorbance was recorded at 515–517 nm. According to the method described, delocalization also results in a deep violet color and is quantified as a percentage of scavenging activity. % scavenging activity (SA) = 100 × (Asample − Ablank)/(Acontrol − Ablank)(1) where Acontrol and Asample are the absorbances of the test DPPH without and with a sample, respectively. Ablank is the absorbance of the solvent used. The EC50 values were calculated from the relationship curve of %SA versus sample concentration. The experiment was carried out at least in triplicate.

[3] = ABTS radical cation scavenging assay; type: biochemical; settings: for EC50: read-out: ABTS734nm EC50 ± SD
Source text: as §1
The ABTS assay was prepared by reaction of 5 mL of a 7 mM aqueous ABTS (2,2′-azino-bis (3-ethylbenzthiazoline-6-sulphonic acid) solution and 2.45 mM potassium persulfate solution (K2S2O8). After preparation and storage in the dark for 16 h, the radical cation solution was further diluted in ethanol to absorb about 0.7 at 734 nm. Trolox and test sample solutions were prepared in stock solution with DMSO and diluted with ethanol. A solution of 100 μL of the sample was mixed with 100 μL of the ABTS reagent in a 96-well plate. The mixture was shaken in a dark place for 10 min and incubated at 37 °C for 20 min, and the absorbance was determined at 734 nm. Absorbance determinations were recorded immediately and not more than 1 h after adding the reagent. The solution without the sample was used as a blank. All the determinations were made in triplicate. The sample’s scavenging percentage was calculated from this equation: scavenging percentage = (Absorbance control − Absorbance sample) × 100/Absorbance control. EC50 values were calculated from the relationship curve of %scavenging versus sample concentration.

[4] = tested on: HEK293 cells; test: Cell migration scratch assay, HEK293; type: cell-based; settings: HEK293, 100 μM, 24 and 48 h
Protocol: Cell migration in the HEK293 and the HeLa cell lines was investigated. The assay was conducted to investigate cell maintenance after being damaged. The active samples from in vitro antioxidant activity were examined. Cells were grown in a 24-well plate until 80% confluence and treated with 2f and 2j for 24 or 48 h compared to the untreated control. The cells in each well were then scratched to create a wound area across the center of the plates using a plastic 20 μL pipette tip. Cell images were taken immediately, and the scratch area was measured at 0, 24, and 48 h. During the experiment, the percentage of wound area was tracked as an indirect assessment. Compared to the control, the percentage of empty area change at each time point was quantified with a Nikon eclipse Ts2R inverted microscope.
Figure 7 A scratch assay was performed to examine the migration ability of synthesized compounds 2f and 2j at 100 μM compared with untreated control. Representative pictures of the assay induce the migration of HEK cells using quercetin as a reference. Pictures were taken at the start of the experiment (0 h) 24 and 48 h later. Pictures of representative experiments are shown, and the relative migration of cells is represented with a bar graph; means ± SD (n = 3; *: p < 0.05 and **: p < 0.001, Turkey HSD), Scale bars represent 500 μm.

Row | EC50 [2] [µM] | EC50 [3] [µM] | SMILES | Invasion of HeLa cells [1] | DPPH517nm % SA ± SD [2] [%] | ABTS734nm % Scavenging at 500 µM [3] [%] | Cell migration vs untreated [4]
1 | 18.3 ± 5.62 | 11.4 ± 0.17 | O=c1c(O)c(-c2ccc(O)c(O)c2)oc2cc(O)cc(O)c12 [Quercetin, quercetin, reference compound] | significantly inhibited the invasion of HeLa cells | 93.89 ± 2.04 | 88.51 ± 0.80 | significant induction of cell migration
2 | 34.1 ± 3.28 | 10.2 ± 0.7 | O=C(c1ccccc1)c1c(-c2ccccc2)oc2c(O)c(O)ccc2c1=O [2f, 3-Benzoyl-7,8-dihydroxy-2-phenyl-4H-chromen-4-one] | significantly inhibited the invasion of HeLa cells | 93.55 ± 3.20 | 81.63 ± 1.80 | significant induction of cell migration
3 | 49.9 ± 11 | 22.2 ± 0.39 | O=C(Oc1ccc2c(=O)c(C(=O)c3ccccc3)c(-c3ccccc3)oc2c1O)c1ccccc1 [2j, 3-Benzoyl-8-hydroxy-4-oxo-2-phenyl-4H-chromen-7-yl benzoate] | significantly inhibited the invasion of HeLa cells | 92.88 ± 0.46 | >95 | significant induction of cell migration

Source: paper PMC10096453, “One-Pot Synthesis and Evaluation of Antioxidative Stress and Anticancer Properties of an Active Chromone Derivative” (Molecules, 2023)
